Source: patent US20140073639A1 (priority 2012, published 2014)
Values after ≈ are worked out from the molar mass of the structure shown.

How the values were obtained:
[1] = type: cell-based
B. Anthracis = test: microbe, parasite or virus in culture; type: cell-based; details: for inhibition at 10 µM / inhibition at 30 µM / inhibition at 3 µM: Bacillus anthracis; for inhibition at 10 µM: read-out: B. Anthracis 10 μM (growth inhibition); for inhibition at 30 µM: read-out: B. Anthracis 30 μM (growth inhibition); for inhibition at 3 µM: read-out: B. Anthracis 3 μM (growth inhibition)
S. MRSA = test: microbe, parasite or virus in culture; type: cell-based; details: for inhibition at 10 µM / inhibition at 30 µM / inhibition at 3 µM: Staphylococcus aureus, MRSA; for inhibition at 10 µM: read-out: S. MRSA 10 μM (growth inhibition); for inhibition at 30 µM: read-out: S. MRSA 30 μM (growth inhibition); for inhibition at 3 µM: read-out: S. MRSA 3 μM (growth inhibition)

C=CCN1C(=O)/C(=C\c2cc(OC)c(O)c(Cl)c2Cl)NC1=S [Cmpd 89]
MIC, 25% Serum [1]: >250 µM | MIC, No Serum [1]: 250 µM (≈ 89.8 µg/mL)

O=C(O)C(Cc1ccccc1)N1C(=O)/C(=C\c2ccc(-c3cc(Cl)nc(Cl)c3)o2)NC1=S (stereo not drawn) [Cmpd 80]
MIC, 25% Serum [1]: >250 µM | MIC, No Serum [1]: 62.5 µM (≈ 30.5 µg/mL)

O=C1Nc2ccc(Br)cc2/C1=C1/NC(=S)N(C(Cc2ccccc2)C(=O)O)C1=O (stereo not drawn) [Cmpd 31]
inhibition at 10 µM (B. Anthracis): 2.5% | inhibition at 30 µM (B. Anthracis): 88% | inhibition at 10 µM (S. MRSA): -8% | inhibition at 30 µM (S. MRSA): -2.22% | MIC, 25% Serum [1]: >250 µM | MIC, No Serum [1]: 250 µM (≈ 118 µg/mL)

O=C([O-])C(Cc1ccccc1)N1C(=O)/C(=C\c2ccc(-c3ccc(Cl)c(Cl)c3)o2)NC1=S.[Na+] (stereo not drawn) [Cmpd 65]
B. Anthracis 3 μM (growth inhibition) (B. Anthracis; 3 μM): 108.67 | B. Anthracis 10 μM (growth inhibition) (B. Anthracis): 107.86 | B. Anthracis 30 μM (growth inhibition) (B. Anthracis): 104.01 | S. MRSA 3 μM (growth inhibition) (S. MRSA): 0.9 | S. MRSA 10 μM (growth inhibition) (S. MRSA): 104.72 | S. MRSA 30 μM (growth inhibition) (S. MRSA): 105.68 | MIC, 25% Serum [1]: >250 µM | MIC, No Serum [1]: 7.8 µM

O=C(O)C(Cc1ccccc1)N1C(=O)/C(=C\c2cc3cc(Br)ccc3o2)NC1=S (stereo not drawn) [Cmpd 91]
MIC, 25% Serum [1]: >250 µM | MIC, No Serum [1]: 125 µM (≈ 58.9 µg/mL)

CNC(=O)c1ccc(Cl)c(-c2ccc(/C=C3/NC(=S)N(C(Cc4ccccc4)C(=O)O)C3=O)o2)c1Cl (stereo not drawn) [Cmpd 82]
MIC, 25% Serum [1]: >250 µM | MIC, No Serum [1]: >250 µM

O=C(O)C(Cc1ccccc1)N1C(=O)/C(=C\c2ncc(-c3ccc(Cl)c(Cl)c3)o2)NC1=S (stereo not drawn) [Cmpd 78]
MIC, 25% Serum [1]: >250 µM | MIC, No Serum [1]: 250 µM (≈ 122 µg/mL)

O=C(O)C(Cc1ccccc1)N1C(=O)/C(=C\c2ccc(-c3ccc(Cl)c(Cl)c3)[nH]2)NC1=S (stereo not drawn) [Cmpd 75]
MIC, 25% Serum [1]: >250 µM | MIC, No Serum [1]: 62.5 µM (≈ 30.4 µg/mL)

Cc1oc(=O)oc1COC(=O)C(Cc1ccccc1)N1C(=O)/C(=C\c2ccc(-c3ccc(Cl)c(Cl)c3)o2)NC1=S (stereo not drawn) [Cmpd 64]
inhibition at 3 µM (B. Anthracis; 3 μM): -0.01% | inhibition at 10 µM (B. Anthracis): 0.22% | inhibition at 30 µM (B. Anthracis): -1.34% | inhibition at 3 µM (S. MRSA): 0.71% | inhibition at 10 µM (S. MRSA): -1.48% | inhibition at 30 µM (S. MRSA): -3.34% | MIC, 25% Serum [1]: >250 µM | MIC, No Serum [1]: >250 µM

O=C(O)C(Cc1ccccc1)N1C(=O)/C(=C\c2ccco2)NC1=S (stereo not drawn) [Cmpd 62]
MIC, 25% Serum [1]: >250 µM | MIC, No Serum [1]: >250 µM

C=CCN1C(=O)/C(=C\c2cc(OCC)c(O)c(Br)c2Cl)NC1=S [Cmpd 88]
MIC, 25% Serum [1]: >250 µM | MIC, No Serum [1]: >250 µM

CNC(=O)c1ccc(-c2ccc(/C=C3/NC(=S)N(C(Cc4ccccc4)C(=O)O)C3=O)o2)cc1 (stereo not drawn) [Cmpd 81]
MIC, 25% Serum [1]: >250 µM | MIC, No Serum [1]: >250 µM

CNC(=O)c1cc(-c2ccc(/C=C3/NC(=S)N(C(Cc4ccccc4)C(=O)O)C3=O)o2)ccc1Cl (stereo not drawn) [Cmpd 83]
MIC, 25% Serum [1]: >250 µM | MIC, No Serum [1]: >250 µM

NC(=O)C(Cc1ccccc1)N1C(=O)/C(=C\c2ccc(-c3ccc(Cl)c(Cl)c3)o2)NC1=S (stereo not drawn) [Cmpd 54]
inhibition at 3 µM (B. Anthracis; 3 μM): 20.6% | inhibition at 10 µM (B. Anthracis): 94.8% | inhibition at 30 µM (B. Anthracis): 93% | inhibition at 3 µM (S. MRSA): 2.03% | inhibition at 10 µM (S. MRSA): 30.1% | inhibition at 30 µM (S. MRSA): 57.5% | MIC, 25% Serum [1]: >250 µM | MIC, No Serum [1]: >250 µM

O=C(O)C(Cc1ccccc1)N1C(=O)/C(=C\c2ccc(-c3ccc(Cl)nc3Cl)o2)NC1=S (stereo not drawn) [Cmpd 73]
MIC, 25% Serum [1]: >250 µM | MIC, No Serum [1]: 125 µM (≈ 61 µg/mL)

COc1ccc(-c2ccc(/C=C3/NC(=S)N([C@@H](Cc4ccccc4)C(=O)O)C3=O)o2)cc1Cl [Cmpd 52]
inhibition at 3 µM (B. Anthracis; 3 μM): -5.68% | inhibition at 10 µM (B. Anthracis): 27.3% | inhibition at 30 µM (B. Anthracis): 95.5% | inhibition at 3 µM (S. MRSA): -7.99% | inhibition at 10 µM (S. MRSA): -11.7% | inhibition at 30 µM (S. MRSA): 82.2% | MIC, 25% Serum [1]: >250 µM | MIC, No Serum [1]: 62.5 µM (≈ 30.2 µg/mL)

O=C(O)C(Cc1ccccc1)N1C(=O)/C(=C\c2ccc(-c3ccnc(Cl)c3)o2)NC1=S (stereo not drawn) [Cmpd 70]
inhibition at 3 µM (B. Anthracis; 3 μM): 2.54% | inhibition at 10 µM (B. Anthracis): 16% | inhibition at 30 µM (B. Anthracis): 4.62% | inhibition at 3 µM (S. MRSA): -0.84% | inhibition at 10 µM (S. MRSA): -1.26% | inhibition at 30 µM (S. MRSA): -1.4% | MIC, 25% Serum [1]: >250 µM | MIC, No Serum [1]: 125 µM (≈ 56.7 µg/mL)

CCC(C(=O)O)N1C(=O)/C(=C\c2ccc(-c3ccc(Cl)c(Cl)c3)o2)NC1=S (stereo not drawn) [Cmpd 44]
inhibition at 3 µM (B. Anthracis; 3 μM): 4.13% | inhibition at 10 µM (B. Anthracis): 97.2% | inhibition at 30 µM (B. Anthracis): 94% | inhibition at 3 µM (S. MRSA): -2.47% | inhibition at 10 µM (S. MRSA): 4.53% | inhibition at 30 µM (S. MRSA): 92.9% | MIC, 25% Serum [1]: >250 µM | MIC, No Serum [1]: 250 µM (≈ 106 µg/mL)

CNC(=O)C(Cc1ccccc1)N1C(=O)/C(=C\c2ccc(-c3ccc(Cl)c(Cl)c3)o2)NC1=S (stereo not drawn) [Cmpd 56]
MIC, 25% Serum [1]: >250 µM | MIC, No Serum [1]: >250 µM

COc1cc(/C=C2/NC(=S)N(C(Cc3ccccc3)C(=O)O)C2=O)c(Cl)c(Cl)c1O (stereo not drawn) [Cmpd 90]
MIC, 25% Serum [1]: >250 µM | MIC, No Serum [1]: >250 µM

C=CCN1C(=O)/C(=C\c2ccc(-c3ccc(Cl)c(Cl)c3)o2)NC1=S [Cmpd 86]
MIC, 25% Serum [1]: >250 µM | MIC, No Serum [1]: >250 µM

O=C([O-])C(Cc1ccccc1)N1C(=O)/C(=C\c2ccc(-c3ccc(Cl)c(Cl)c3)o2)NC1=S.[Na+] (stereo not drawn) [Cmpd 66]
S. MRSA 3 μM (growth inhibition) (S. MRSA): 0.9 | MIC, 25% Serum [1]: >250 µM | MIC, No Serum [1]: 7.8 µM

O=C(O)C(Cc1ccccc1)N1C(=O)CNC1=S (stereo not drawn) [Cmpd 61]
MIC, 25% Serum [1]: >250 µM | MIC, No Serum [1]: >250 µM

CC(C)[C@H](C(=O)O)N1C(=O)C[C@H](NC(=O)c2cocc2-c2ccc(Cl)cc2)C1=O [Cmpd 87]
MIC, 25% Serum [1]: >250 µM | MIC, No Serum [1]: >250 µM

O=C(O)c1cccc(N2C(=O)/C(=C\c3ccc(-c4ccc(Cl)c(Cl)c4)o3)NC2=S)c1 [Cmpd 77]
MIC, 25% Serum [1]: >250 µM | MIC, No Serum [1]: 31.3 µM (≈ 14.4 µg/mL)

CNC(=O)c1ccc(-c2ccc(/C=C3/NC(=S)N(C(Cc4ccccc4)C(=O)O)C3=O)o2)cc1Cl (stereo not drawn) [Cmpd 85]
MIC, 25% Serum [1]: >250 µM | MIC, No Serum [1]: >250 µM

O=C(O)c1cc(-c2ccc(/C=C3/NC(=S)N(C(Cc4ccccc4)C(=O)O)C3=O)o2)ccc1Cl (stereo not drawn) [Cmpd 74]
MIC, 25% Serum [1]: >250 µM | MIC, No Serum [1]: >250 µM

O=C(O)CN1C(=O)N/C(=C/c2ccc(-c3ccc(Cl)c(Cl)c3)o2)C1=O [Cmpd 79]
MIC, 25% Serum [1]: >250 µM | MIC, No Serum [1]: >250 µM

O=C(O)C(Cc1ccccc1)N1C(=O)/C(=C\c2oc(Cl)nc2Cl)NC1=S (stereo not drawn) [Cmpd 84]
MIC, 25% Serum [1]: >250 µM | MIC, No Serum [1]: >250 µM

O=C1Nc2ccccc2/C1=C1/SC(=S)N(C(Cc2ccccc2)C(=O)O)C1=O (stereo not drawn) [Cmpd 6]
inhibition at 10 µM (B. Anthracis): 19.6% | inhibition at 30 µM (B. Anthracis): 92.6% | inhibition at 10 µM (S. MRSA): 45.7% | inhibition at 30 µM (S. MRSA): 47.8%

O=C(O)C(Cc1ccccc1)N1C(=O)/C(=C\c2ccc(-c3ccc(Cl)c(Cl)n3)o2)NC1=S (stereo not drawn) [Cmpd 76]
MIC, 25% Serum [1]: >250 µM | MIC, No Serum [1]: 62.5 µM (≈ 30.5 µg/mL)

O=C1NC(=S)N/C1=C/c1ccc(-c2ccc(Cl)c(Cl)c2)o1 [Cmpd 63]
MIC, 25% Serum [1]: >250 µM | MIC, No Serum [1]: 62.5 µM (≈ 21.2 µg/mL)

CC(C)C(C(=O)O)N1C(=O)/C(=C2/C(=O)Nc3ccccc32)SC1=S (stereo not drawn) [Cmpd 17]
B. Anthracis 10 μM (growth inhibition) (B. Anthracis): −2.28 | B. Anthracis 30 μM (growth inhibition) (B. Anthracis): 7.03 | S. MRSA 10 μM (growth inhibition) (S. MRSA): 14.85 | S. MRSA 30 μM (growth inhibition) (S. MRSA): 46.76

CN1C(=O)C(Cc2ccc(-c3ccc(Cl)c(Cl)c3)o2)C(=O)N(C)C1=O [Cmpd 23]
inhibition at 3 µM (B. Anthracis; 3 μM): -8.49% | inhibition at 10 µM (B. Anthracis): 1.54% | inhibition at 30 µM (B. Anthracis): 10.7% | inhibition at 3 µM (S. MRSA): -8.09% | inhibition at 10 µM (S. MRSA): -7.35% | inhibition at 30 µM (S. MRSA): 0%
